Data taken from patent publication US6706663B2, “Herbicidal 3-heterocyclic substituted benzisothiazole and benzisoxazole compounds” (Wyeth, priority 2000, dated 2004).

Key:
[1] = test system: ZEAMX (Corn, Field); test: Postemergence herbicidal evaluation; format: in vivo, Zea mays, L.
Procedure, shortened: (§1)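 Seedlings grown about two weeks in flats, sprayed, then kept under standard greenhouse care. Rated visually 4–5 weeks after treatment on a 0–9 scale (stand, vigour, malformation, size, chlorosis, overall appearance) relative to untreated control; repeat tests averaged.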

[2] = test system: ECHORC (Echinochloa oryzoides); test: Flooded paddy, preemergence weed control; format: in vivo, Echinochloa oryzoides (Ard.) Fritsch.; settings: rated 3-4 weeks after treatment, 0-9 rating scale
Procedure, shortened: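 Visual 0-9 rating versus control, scoring stand, vigor, malformation, size, chlorosis and overall appearance. Silt loam soil, propagules in top 0.5 cm; flood depth 1.5–3 cm held for the whole test; greenhouse.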

[3] = test system: TRZAWR (Wheat, Winter, cv Riband); test: Preemergence herbicidal evaluation; format: in vivo, Triticum aestivum; settings: rated 4-5 weeks after treatment
Procedure, shortened: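 Visual 0–9 rating versus control (stand, vigor, malformation, size, chlorosis, overall appearance), scored four to five weeks post-treatment. Preemergence spray of aqueous acetone solution onto freshly seeded soil cups; plants grown under conventional greenhouse care.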

[4] = test system: ZEAMX (Corn, Field); test: Preemergence herbicidal evaluation; format: in vivo, Zea mays, L.; settings: rated 4-5 weeks after treatment
[5] = test system: ORYSAT (Rice, Tebonnet); test: Flooded paddy, post-transplant rice tolerance; format: in vivo, Oryza sativa, (L.) Tebonnet; settings: flooded paddy, post-transplant rice, rated 3-4 weeks after treatment, 0-9 rating scale
Procedure, shortened: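 Visual 0-9 rating against a control, covering stand, vigor, malformation, size, chlorosis and overall appearance. Treatment was applied after transplanting paired ten-day-old seedlings into flooded silt loam, with water kept 1.5 to 3 cm deep on greenhouse benches.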

[6] = test system: GLXMAW (Soybean, Williams); test: Postemergence herbicidal evaluation; format: in vivo, Glycine max, (L.) Merr. cv Williams
Procedure, shortened: as §1

[7] = test system: IPOHE (Ipomoea hederacea); test: Preemergence herbicidal evaluation; format: in vivo, (L.) Jacq.; settings: rated 4-5 weeks after treatment
[8] = test system: ABUTH (Abutilon theophrasti); test: Preemergence herbicidal evaluation; format: in vivo, Medic.; settings: rated 4-5 weeks after treatment
[9] = test system: ECHCG (Echinochloa crus-galli); test: Postemergence herbicidal evaluation; format: in vivo, (L.) Beau
Procedure, shortened: as §1

[10] = test system: GLXMAW (Soybean, Williams); test: Preemergence herbicidal evaluation; format: in vivo, Glycine max, (L.) Merr. cv Williams; settings: rated 4-5 weeks after treatment

SMILES | Postemergence herbicidal rating, ZEAMX ([1]; rate 0.0320 kg/ha) | Postemergence herbicidal rating, ZEAMX ([1]; rate 0.0620 kg/ha) | herbicidal rating, ECHORC ([2]; rate 0.0320 kg/ha) | herbicidal rating, ECHORC ([2]; rate 0.1250 kg/ha) | TRZAWR preemergence herbicidal rating ([3]; Rate 0.1250 kg/ha) | TRZAWR preemergence herbicidal rating ([3]; Rate 0.2500 kg/ha) | ZEAMX preemergence herbicidal rating ([4]; Rate 0.1250 kg/ha) | ZEAMX preemergence herbicidal rating ([4]; Rate 0.2500 kg/ha) | herbicidal rating, ORYSAT (rice tolerance) ([5]; rate 0.0320 kg/ha) | herbicidal rating, ORYSAT (rice tolerance) ([5]; rate 0.1250 kg/ha) | Postemergence herbicidal rating, GLXMAW ([6]; rate 0.0320 kg/ha) | Postemergence herbicidal rating, GLXMAW ([6]; rate 0.0620 kg/ha) | IPOHE preemergence herbicidal rating ([7]; Rate 0.1250 kg/ha) | Postemergence herbicidal rating, ECHCG ([9]; rate 0.0320 kg/ha) | Postemergence herbicidal rating, ECHCG ([9]; rate 0.0620 kg/ha) | Preemergence herbicidal rating TRZAWR ([3]; Rate 0.0620 kg/ha) | Preemergence herbicidal rating ZEAMX ([4]; Rate 0.0620 kg/ha) | Preemergence herbicidal rating IPOHE ([7]; Rate 0.0620 kg/ha) | Preemergence herbicidal rating ABUTH ([8]; Rate 0.0620 kg/ha) | Preemergence herbicidal rating GLXMAW ([10]; Rate 0.0620 kg/ha) | also measured
Cn1c(C(F)(F)F)cc(=O)n(-c2ccc3snc(C4OCC(C)(C)CO4)c3c2)c1=O [Compound 36, 3-[3(5,5-dimethyl-m-dioxan-2-yl)-1,2-benzisothiazol-5-yl]-1-methyl-6-(trifluoromethyl)uracil] | 5.0 | 6.0 | 8.5 | 9.0 | 9.0 | 9.0 | 8.0 | 9.0 | 7.5 | 9.0 | 7.5 | 9.0 | 6.5 | 1.0 | 3.0 | – | – | – | – | – | herbicidal rating, ECHORC ([2]; rate 0.0080 kg/ha): 5.0; TRZAWR preemergence herbicidal rating ([3]; Rate 0.0620 kg/ha): 9.0; ZEAMX preemergence herbicidal rating ([4]; Rate 0.0620 kg/ha): 8.0; herbicidal rating, ORYSAT (rice tolerance) ([5]; rate 0.0080 kg/ha): 5.0; IPOHE preemergence herbicidal rating ([7]; Rate 0.0620 kg/ha): 3.5; IPOHE preemergence herbicidal rating ([7]; Rate 0.2500 kg/ha): 9.0; ABUTH preemergence herbicidal rating ([8]; Rate 0.0620 kg/ha): 9.0; ABUTH preemergence herbicidal rating ([8]; Rate 0.1250 kg/ha): 9.0; ABUTH preemergence herbicidal rating ([8]; Rate 0.2500 kg/ha): 9.0; GLXMAW preemergence herbicidal rating ([10]; Rate 0.0620 kg/ha): 8.0; GLXMAW preemergence herbicidal rating ([10]; Rate 0.1250 kg/ha): 9.0; GLXMAW preemergence herbicidal rating ([10]; Rate 0.2500 kg/ha): 9.0
CC1CCOC(c2nsc3ccc(-n4c(=O)cc(C(F)(F)F)n(C)c4=O)cc23)O1 (stereo not shown) [Compound 37, 1-methyl-3-[3-(4-methyl-m-dioxan-2-yl)-1,2-benzisothiazol-5-yl]-6-(trifluoromethyl)uracil] | 6.0 | 6.0 | 9.0 | 9.0 | 9.0 | 9.0 | 9.0 | 9.0 | 8.5 | 9.0 | 9.0 | 9.0 | 8.0 | 4.0 | 4.0 | – | – | – | – | – | herbicidal rating, ECHORC ([2]; rate 0.0080 kg/ha): 3.0; TRZAWR preemergence herbicidal rating ([3]; Rate 0.0620 kg/ha): 9.0; ZEAMX preemergence herbicidal rating ([4]; Rate 0.0620 kg/ha): 9.0; herbicidal rating, ORYSAT (rice tolerance) ([5]; rate 0.0080 kg/ha): 5.0; IPOHE preemergence herbicidal rating ([7]; Rate 0.0620 kg/ha): 7.0; IPOHE preemergence herbicidal rating ([7]; Rate 0.2500 kg/ha): 7.0; ABUTH preemergence herbicidal rating ([8]; Rate 0.0620 kg/ha): 9.0; ABUTH preemergence herbicidal rating ([8]; Rate 0.1250 kg/ha): 9.0; ABUTH preemergence herbicidal rating ([8]; Rate 0.2500 kg/ha): 9.0; GLXMAW preemergence herbicidal rating ([10]; Rate 0.0620 kg/ha): 9.0; GLXMAW preemergence herbicidal rating ([10]; Rate 0.1250 kg/ha): 9.0; GLXMAW preemergence herbicidal rating ([10]; Rate 0.2500 kg/ha): 9.0
C#CCOC(=O)COc1ccsc1-c1nsc2ccc(-n3c(=O)cc(C(F)(F)F)n(C)c3=O)cc12 [Compound 39, 2-propynyl [[2-[5-[3,6-dihydro-3-methyl-2,6-dioxo-4-(trifluoromethyl)-1(2H)-pyrimidinyl]-1,2-benzisothiazol-3-yl]-3-thienyl]oxy]acetate] | 4.5 | 5.0 | 0.0 | 0.0 | 0.0 | 1.0 | 0.0 | 1.0 | 0.0 | 4.0 | 5.0 | 5.0 | 0.0 | 0.0 | 1.0 | 0.0 | 0.0 | 0.0 | 1.0 | 0.0 | IPOHE preemergence herbicidal rating ([7]; Rate 0.2500 kg/ha): 1.0; ABUTH preemergence herbicidal rating ([8]; Rate 0.1250 kg/ha): 1.0; ABUTH preemergence herbicidal rating ([8]; Rate 0.2500 kg/ha): 9.0; GLXMAW preemergence herbicidal rating ([10]; Rate 0.1250 kg/ha): 1.0; GLXMAW preemergence herbicidal rating ([10]; Rate 0.2500 kg/ha): 1.0
Cc1cc(C)nc(-c2nsc3ccc(-n4c(=O)cc(C(F)(F)F)n(C)c4=O)cc23)n1 [Compound 40, 3-[3-(4,6-dimethyl-2-pyrimidinyl)-1,2-benzisothiazol-5-yl]-1-methyl-6-(trifluoromethyl)uracil] | 4.5 | 5.0 | 2.0 | 6.0 | – | – | – | – | 5.0 | 7.0 | 7.0 | 8.0 | – | 0.0 | 1.0 | 1.0 | 4.0 | 2.0 | 9.0 | 2.0 | Preemergence herbicidal rating TRZAWR ([3]; Rate 0.1250 kg/ha): 5.0; Preemergence herbicidal rating TRZAWR ([3]; Rate 0.2500 kg/ha): 9.0; Preemergence herbicidal rating ZEAMX ([4]; Rate 0.1250 kg/ha): 8.0; Preemergence herbicidal rating ZEAMX ([4]; Rate 0.2500 kg/ha): 9.0; Preemergence herbicidal rating IPOHE ([7]; Rate 0.1250 kg/ha): 7.0; Preemergence herbicidal rating IPOHE ([7]; Rate 0.2500 kg/ha): 9.0; Preemergence herbicidal rating ABUTH ([8]; Rate 0.1250 kg/ha): 9.0; Preemergence herbicidal rating ABUTH ([8]; Rate 0.2500 kg/ha): 9.0; Preemergence herbicidal rating GLXMAW ([10]; Rate 0.1250 kg/ha): 2.0; Preemergence herbicidal rating GLXMAW ([10]; Rate 0.2500 kg/ha): 5.0
Cc1ccc(-c2nsc3ccc(-n4c(=O)cc(C(F)(F)F)n(C)c4=O)cc23)nc1 [Compound 42, 1-methyl-3-[3-(5-methyl-2-pyridyl)-1,2-benzisothiazol-5-yl]-6-(trifluoromethyl)uracil] | 5.5 | 5.5 | 2.0 | 6.0 | – | – | – | – | 3.0 | 4.0 | 6.0 | 8.0 | – | 1.0 | 1.0 | 0.0 | 3.5 | 1.0 | 2.0 | 0.0 | Postemergence herbicidal rating, ZEAMX ([1]; rate 0.1250 kg/ha): 5.5; Preemergence herbicidal rating TRZAWR ([3]; Rate 0.1250 kg/ha): 2.0; Preemergence herbicidal rating TRZAWR ([3]; Rate 0.2500 kg/ha): 5.0; Preemergence herbicidal rating ZEAMX ([4]; Rate 0.1250 kg/ha): 6.0; Preemergence herbicidal rating ZEAMX ([4]; Rate 0.2500 kg/ha): 6.5; Postemergence herbicidal rating, GLXMAW ([6]; rate 0.1250 kg/ha): 8.0; Preemergence herbicidal rating IPOHE ([7]; Rate 0.1250 kg/ha): 2.0; Preemergence herbicidal rating IPOHE ([7]; Rate 0.2500 kg/ha): 4.5; Preemergence herbicidal rating ABUTH ([8]; Rate 0.1250 kg/ha): 6.5; Preemergence herbicidal rating ABUTH ([8]; Rate 0.2500 kg/ha): 9.0; Postemergence herbicidal rating, ECHCG ([9]; rate 0.1250 kg/ha): 3.0; Preemergence herbicidal rating GLXMAW ([10]; Rate 0.1250 kg/ha): 1.0; Preemergence herbicidal rating GLXMAW ([10]; Rate 0.2500 kg/ha): 2.5
CCOc1cc(OCC)nc(-c2nsc3ccc(-n4c(=O)cc(C(F)(F)F)n(C)c4=O)cc23)n1 [Compound 43, 3-[3-(4,6-diethoxy-2-pyrimidinyl)-1,2-benzisothiazol-5-yl]-1-methyl-6-(trifluoromethyl)uracil] | 4.5 | 4.5 | 5.0 | 9.0 | – | – | – | – | 0.0 | 2.0 | 6.0 | 6.0 | – | 2.0 | 2.0 | 1.0 | 2.0 | 0.0 | 4.0 | 1.0 | Preemergence herbicidal rating TRZAWR ([3]; Rate 0.1250 kg/ha): 1.0; Preemergence herbicidal rating TRZAWR ([3]; Rate 0.2500 kg/ha): 2.0; Preemergence herbicidal rating ZEAMX ([4]; Rate 0.1250 kg/ha): 2.0; Preemergence herbicidal rating ZEAMX ([4]; Rate 0.2500 kg/ha): 6.0; Preemergence herbicidal rating IPOHE ([7]; Rate 0.1250 kg/ha): 0.0; Preemergence herbicidal rating IPOHE ([7]; Rate 0.2500 kg/ha): 2.0; Preemergence herbicidal rating ABUTH ([8]; Rate 0.1250 kg/ha): 9.0; Preemergence herbicidal rating ABUTH ([8]; Rate 0.2500 kg/ha): 9.0; Preemergence herbicidal rating GLXMAW ([10]; Rate 0.1250 kg/ha): 3.0; Preemergence herbicidal rating GLXMAW ([10]; Rate 0.2500 kg/ha): 5.0
